Assay results published in patent EP1290011B1 (Oncopeptides AB, priority 2000, dated 2001).
Where a name gives a salt, the structure may show the parent alone. Read-outs that look alike come from different tables or passages of the source.

Legend:
Test in all cases: cells
CEM/S = assay type: cell-based, human
CEM/R = assay type: cell-based, human
ACHN = assay type: cell-based, human
H69 = assay type: cell-based, human
H69AR = assay type: cell-based, human
8226S = assay type: cell-based, human
8226Dox40 = assay type: cell-based, human
8226LR5 = assay type: cell-based, human
U937gtb = assay type: cell-based, human
U937vcr = assay type: cell-based, human
[1] = tested on: panel of ten human tumour cell lines; assay type: cell-based; details: read-out: MEAN IC50
NCI-H23 = assay type: cell-based
U-1752 = assay type: cell-based
NCI-H611 = assay type: cell-based
NCI-H157 = assay type: cell-based
U-1810 = assay type: cell-based
NCI-H125 = assay type: cell-based
U-1568 = assay type: cell-based
U1906L = assay type: cell-based
U1285 = assay type: cell-based
U-1906E = assay type: cell-based
U1690 = assay type: cell-based
[2] = tested on: solid tumour fresh human tumour specimens (PHTC); details: 72 h, read-out: Tumour cell survival index % Solid

## CCOC(=O)[C@H](Cc1ccc(O)cc1)NC(=O)[C@@H](N)Cc1ccc(N(CCCl)CCCl)cc1 [JV24, L-Helphalanyl-L-tyrosine ethyl ester hydrochloride]
CEM/S; read-out: IC50
  IC50: 50 nM
CEM/R; read-out: IC50
  IC50: 30 nM
ACHN; read-out: IC50
  IC50: 320 nM
H69; read-out: IC50
  IC50: 80 nM
H69AR; read-out: IC50
  IC50: 480 nM
8226S; read-out: IC50
  IC50: 1110 nM
8226Dox40; read-out: IC50
  IC50: 5540 nM
8226LR5; read-out: IC50
  IC50: 2500 nM
U937gtb; read-out: IC50
  IC50: 200 nM
U937vcr; read-out: IC50
  IC50: 210 nM
[1]
  IC50: 1050 nM

## CC(=O)O[C@@]12CO[C@@H]1C[C@H](O)[C@@]1(C)C(=O)[C@H](O)C3=C(C)[C@@H](OC(=O)[C@H](O)[C@@H](NC(=O)OC(C)(C)C)c4ccccc4)C[C@@](O)([C@@H](OC(=O)c4ccccc4)[C@H]21)C3(C)C [Docetaxel, docetaxel]
NCI-H23; Homo sapiens, NCI-H23
  IC50: 1500 nM
U-1752
  IC50: 460 nM
NCI-H611
  IC50: 1100 nM
NCI-H157; Homo sapiens, NCI-H157
  IC50: 100 nM
U-1810; U-1810
  IC50: 100 nM
NCI-H125; Homo sapiens, NCI-H125
  IC50: 160 nM
U-1568
  IC50: 5940 nM
U1906L
  IC50: 100 nM
U1285
  IC50: 100 nM
U-1906E
  IC50: 100 nM
U1690
  IC50: 7700 nM
[2]
  viability at 6.2 µM: 67%

## CCOC(=O)[C@H](Cc1ccccc1)NC(=O)[C@@H](N)Cc1ccc(N(CCCl)CCCl)cc1 [JV22, L-Melphalanyl-L-phenylalanine ethyl ester hydrochloride]
CEM/S; read-out: IC50
  IC50: 20 nM
CEM/R; read-out: IC50
  IC50: 10 nM
ACHN; read-out: IC50
  IC50: 170 nM
H69; read-out: IC50
  IC50: 40 nM
H69AR; read-out: IC50
  IC50: 390 nM
8226S; read-out: IC50
  IC50: 670 nM
8226Dox40; read-out: IC50
  IC50: 1380 nM
8226LR5; read-out: IC50
  IC50: 1860 nM
U937gtb; read-out: IC50
  IC50: 140 nM
U937vcr; read-out: IC50
  IC50: 130 nM
[1]
  IC50: 480 nM

## N.N.[Cl][Pt][Cl] [Cisplatin, cisplatin, reference compound]
CEM/S; read-out: IC50
  IC50: 2500 nM
CEM/R; read-out: IC50
  IC50: 1870 nM
ACHN; read-out: IC50
  IC50: 17800 nM
H69; read-out: IC50
  IC50: 92500 nM
H69AR; read-out: IC50
  IC50: 13500 nM
8226S; read-out: IC50
  IC50: 14800 nM
8226LR5; read-out: IC50
  IC50: 16300 nM
U937vcr; read-out: IC50
  IC50: 3000 nM
[1]
  IC50: 18000 nM
NCI-H23; read-out: IC50
  IC50: 11600 nM
U-1752; read-out: IC50
  IC50: 11700 nM
NCI-H611; read-out: IC50
  IC50: 50700 nM
NCI-H157; read-out: IC50
  IC50: 27000 nM
U-1810; read-out: IC50
  IC50: 10300 nM
NCI-H125; read-out: IC50
  IC50: 7000 nM
U-1568; read-out: IC50
  IC50: 23400 nM
U1285; read-out: IC50
  IC50: 2930 nM
U-1906E; read-out: IC50
  IC50: 21100 nM
U1690; read-out: IC50
  IC50: 6730 nM

## CC[C@@]1(O)C(=O)OCc2c1cc1n(c2=O)Cc2cc3c(CN(C)C)c(O)ccc3nc2-1 [Topotecan, topotecan, reference compound]
CEM/S; Homo sapiens, 72 h
  IC50: 20 nM
CEM/R; Homo sapiens, 72 h
  IC50: 20 nM
ACHN; Homo sapiens, ACHN, 72 h
  IC50: 16300 nM
H69; Homo sapiens, NCI-H69, 72 h
  IC50: 1720 nM
H69AR; Homo sapiens, H69AR, 72 h
  IC50: 180000 nM
8226S; Homo sapiens, 72 h
  IC50: 870 nM
8226Dox40; Homo sapiens, 72 h
  IC50: 590 nM
8226LR5; Homo sapiens, 72 h
  IC50: 210 nM
U937gtb; Homo sapiens, U-937/GTB, 72 h
  IC50: 20 nM
U937vcr; Homo sapiens, 72 h
  IC50: 20 nM
[1]; Homo sapiens
  IC50: 20000 nM
NCI-H23; Homo sapiens, NCI-H23
  IC50: 5840 nM
U-1752
  IC50: 28000 nM
NCI-H611
  IC50: 236000 nM
NCI-H157; Homo sapiens, NCI-H157
  IC50: 4330 nM
U-1810; U-1810
  IC50: 80 nM
NCI-H125; Homo sapiens, NCI-H125
  IC50: 236000 nM
U-1568
  IC50: 115000 nM
U1906L
  IC50: 120 nM
U1285
  IC50: 170 nM
U-1906E
  IC50: 80 nM
U1690
  IC50: 920 nM

## CCOC(=O)[C@H](Cc1ccc(OC)cc1)NC(=O)[C@@H](N)Cc1ccc(N(CCCl)CCCl)cc1 [JV25, L-Melphalanyl-L-p-methoxyphenylalanine ethyl ester hydrochloride]
CEM/S; CEM/S, 72 hours incubation, read-out: IC50
  IC50: 40 nM
CEM/R; CEM/R, 72 hours incubation, read-out: IC50
  IC50: 20 nM
ACHN; ACHN, primary resistant renal carcinoma, 72 hours incubation, read-out: IC50
  IC50: 200 nM
H69; H69, small cell lung cancer, 72 hours incubation, read-out: IC50
  IC50: 40 nM
H69AR; H69AR, doxorubicin resistance, 72 hours incubation, read-out: IC50
  IC50: 280 nM
8226S; 8226S, myeloma, 72 hours incubation, read-out: IC50
  IC50: 650 nM
8226Dox40; 8226Dox40, doxorubicin resistance, 72 hours incubation, read-out: IC50
  IC50: 1200 nM
8226LR5; 8226LR5, melphalan resistance, 72 hours incubation, read-out: IC50
  IC50: 1820 nM
U937gtb; U937gtb, lymphoma, 72 hours incubation, read-out: IC50
  IC50: 150 nM
U937vcr; U937vcr, vincristine resistance, 72 hours incubation, read-out: IC50
  IC50: 160 nM
[1]; mean over the ten cell lines
  IC50: 460 nM

## Nc1ccn([C@@H]2O[C@H](CO)[C@@H](O)[C@@H]2O)c(=O)n1 [AraC]
[2]
  viability at 10.3 µM: 102%
